The record followed here is ChEMBL document CHEMBL5604063, “ASAP - DENV-2 NS2B-NS3 protease fluorescence dose response” (2024).

Several values for one entry are separate records, joined by “and”; a condition that tells them apart may be missing. Equal values may be shown once.

Genome polyprotein, sequence (P29990 1346-1475 limits assumed): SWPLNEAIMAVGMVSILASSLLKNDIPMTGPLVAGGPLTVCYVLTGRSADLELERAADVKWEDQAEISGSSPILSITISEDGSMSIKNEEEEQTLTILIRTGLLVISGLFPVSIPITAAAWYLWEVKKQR
Genome polyprotein, sequence (P29990 1476-2093 limits assumed): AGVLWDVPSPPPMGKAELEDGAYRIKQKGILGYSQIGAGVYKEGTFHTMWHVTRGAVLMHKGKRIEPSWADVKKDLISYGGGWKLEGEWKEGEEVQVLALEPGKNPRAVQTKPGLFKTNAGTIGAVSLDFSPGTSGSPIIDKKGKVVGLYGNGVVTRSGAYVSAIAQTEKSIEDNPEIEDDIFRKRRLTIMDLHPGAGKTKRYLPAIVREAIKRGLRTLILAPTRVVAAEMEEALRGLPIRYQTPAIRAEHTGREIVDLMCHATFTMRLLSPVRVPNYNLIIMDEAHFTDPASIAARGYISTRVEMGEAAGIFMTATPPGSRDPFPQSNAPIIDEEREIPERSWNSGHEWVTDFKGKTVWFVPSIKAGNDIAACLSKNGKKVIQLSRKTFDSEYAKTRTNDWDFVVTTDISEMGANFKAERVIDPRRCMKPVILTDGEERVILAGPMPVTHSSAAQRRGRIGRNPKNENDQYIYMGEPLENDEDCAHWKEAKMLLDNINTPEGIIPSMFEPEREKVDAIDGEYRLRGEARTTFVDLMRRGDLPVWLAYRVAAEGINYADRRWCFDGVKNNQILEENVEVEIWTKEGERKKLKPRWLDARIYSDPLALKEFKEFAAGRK

The experiment has as its target Genome polyprotein (dengue virus type 2, UniProt P29990). The experiment is classed as functional, Thailand/16681/1984.
Broadly, the IC50 is the concentration needed to halve the response being measured. Compound `CCN1CCN(c2ccc(NS(=O)(=O)c3ccc(Cl)cc3C(=O)O)cc2)CC1` came in with a concentration for half-maximal inhibition (IC50) of more than 99.5 µM.

In turn, `COc1ccc(F)cc1-c1ccc(S(=O)(=O)Nc2ccc(Cl)cc2C(=O)O)cc1` gave an IC50 of 11.7 µM.

Consider `CCn1c(=O)c(N2C[C@H]3CCC[C@H]2C3)nc2ccccc21`, for which the concentration for half-maximal inhibition (IC50) was more than 99.5 µM.

As for `O=C(O)c1cc(Cl)ccc1S(=O)(=O)Nc1ccc(N2CCCCC2)c(Cl)c1`, the IC50 turned out to be 71.6 µM.

In turn, `NCc1cccc(NC(=O)[C@H](NC(=O)C2CCC2)c2ccc(OCc3ccccc3)cc2)c1` had an IC50 of more than 99.5 µM.

Compound `O=C(O)c1cc(F)c(F)c(F)c1NS(=O)(=O)c1ccc(Oc2ccccc2Cl)cc1` showed a concentration for half-maximal inhibition (IC50) of 24.5 µM.

The compound `CCC(=O)N1CCc2ccc(NS(=O)(=O)c3ccc(Cl)cc3C(=O)O)cc21` returned an IC50 of more than 99.5 µM.

With `Cc1nn(C)cc1-c1ccc(S(=O)(=O)Nc2ccc(Cl)cc2C(=O)O)cc1`, the half-maximal inhibitory concentration (IC50) came out at 85.4 µM.

Consider `O=C(Cn1ccnc(N2CC[C@H](CO)C2)c1=O)NCc1nccs1`, for which the IC50 was more than 99.5 µM.

Regarding `CCn1ccnc(N2C[C@H](c3c[nH]c4ccccc34)[C@H](N3C(=O)c4ccccc4C3=O)C2)c1=O`, the 50% inhibitory concentration (IC50) was more than 99.5 µM.

For the compound `O=C(Nc1ccc(NS(=O)(=O)c2ccc(Cl)cc2C(=O)O)cc1)c1ccccc1`, the half-maximal inhibitory concentration (IC50) was more than 99.5 µM.

`CC(C)Oc1ccccc1C(=O)N[C@H](C(=O)Nc1cccc(CN)c1)c1ccc(OCc2ccccc2)cc1` showed an IC50 of 74.2 µM.

In turn, `O=C(O)c1cc(Cl)ccc1S(=O)(=O)N[C@H]1CC[C@@H](Oc2ccccc2)CC1` showed a 50% inhibitory concentration (IC50) of more than 99.5 µM.

As to `NCc1cccc(NC(=O)[C@H](NS(=O)(=O)CC2CCC2)c2ccc(OCc3ccccc3)cc2)c1`, the IC50 was more than 99.5 µM.

`NCc1cccc(NC(=O)[C@H](NC(=O)OCc2ccccc2)c2ccc(Br)cc2F)c1` registered a half-inhibitory concentration (IC50) of 66 µM.

Regarding `NCc1cccc(CNC(=O)c2cc(Cl)cc(NC(=O)OCc3ccccc3)c2)c1`, the half-inhibitory concentration (IC50) is more than 99.5 µM.

The compound `NCc1cccc(NC(=O)[C@H](NC(=O)OCc2ccccc2)c2cccc(-c3ccc(S(N)(=O)=O)cc3)c2)c1` registered an IC50 of more than 99.5 µM.

In turn, `Cn1cc(-c2cccc([C@H](NC(=O)OCc3ccccc3)C(=O)Nc3cccc(CN)c3)c2)cn1` showed a concentration for half-maximal inhibition (IC50) of more than 99.5 µM.

With `COCc1cc(Cl)ccc1NS(=O)(=O)c1ccc(Oc2ccccc2Cl)cc1`, the IC50 was more than 99.5 µM.

With `CCN(C(=O)Cn1ccnc(N2CC[C@H](CO)C2)c1=O)C(C)C`, the IC50 was more than 99.5 µM.

Turning to `NCc1cccc(NC(=O)c2cc(NC(=O)OCc3ccccc3)c(=O)n3c2CCCC3)c1`, the 50% inhibitory concentration (IC50) was more than 99.5 µM.

`NCc1cccc(NC(=O)[C@H](NC(=O)c2ccns2)c2ccc(OCc3ccccc3)cc2)c1` came in with a concentration for half-maximal inhibition (IC50) of more than 99.5 µM.

In the case of `CCn1c(=O)c(N2CC[C@H](c3nccn3C)C2)nc2ccccc21`, the IC50 is more than 99.5 µM.

The compound `Cc1nccn1-c1ccc(NS(=O)(=O)c2ccc(Cl)cc2C(=O)O)cc1F` yielded a concentration for half-maximal inhibition (IC50) of more than 99.5 µM.

In the case of `O=C(O)c1cc(Cl)ccc1S(=O)(=O)Nc1ccc(N2CCCS2(=O)=O)cc1`, the IC50 was more than 99.5 µM.

As to `Cc1cc(N2CCC(NS(=O)(=O)c3ccc(Cl)cc3C(=O)O)CC2)nc(C)n1`, the 50% inhibitory concentration (IC50) was more than 99.5 µM.

With `CCOc1cccc(-c2ccc(S(=O)(=O)Nc3ccc(Cl)cc3C(=O)O)cc2)c1`, the IC50 is 4.25 µM and 6.13 µM.

Consider `NCC1(NC(=O)[C@H](NC(=O)OCc2ccccc2)c2ccc(OCc3ccccc3)cc2)CCCCC1`, for which the 50% inhibitory concentration (IC50) was more than 99.5 µM.

`Cn1ccnc1C(=O)N[C@H](C(=O)Nc1cccc(CN)c1)c1ccc(OCc2ccccc2)cc1` had a concentration for half-maximal inhibition (IC50) of more than 99.5 µM.

`CCn1c(=O)c(N2C[C@H]3C[C@H]2CS(=O)(=O)C3)nc2ccccc21`: the IC50 is more than 99.5 µM.

On to `CS(=O)(=O)c1ccc(-c2ccc(S(=O)(=O)Nc3ccc(Cl)cc3C(=O)O)cc2)cc1`, for which inhibition was half-maximal at 33.5 µM (IC50).

For `NCc1cccc(NC(=O)[C@H](NC(=O)OCc2ccccc2)c2cccc(-c3cncc(F)c3)c2)c1`, the IC50 was more than 99.5 µM.

As for `CCn1c(=O)c(N2CC[C@H]3[C@H]2[C@H]3C(F)(F)F)nc2ccccc21`, the IC50 was more than 99.5 µM.

`CS(=O)(=O)c1ccc(-c2cccc([C@H](NC(=O)OCc3ccccc3)C(=O)Nc3cccc(CN)c3)c2)cc1`: the IC50 was 40 µM.

`CCC(C)(C)C(=O)N[C@H](C(=O)Nc1cccc(CN)c1)c1ccc(OCc2ccccc2)cc1` showed an IC50 of more than 99.5 µM.

For `O=C(O)c1cc(Cl)ccc1NS(=O)(=O)c1ccc(-c2cccnc2)cc1`, the concentration for half-maximal inhibition (IC50) is 91.3 µM.

Take `CCn1c(=O)c(N2CC[C@]3(CCNC3=O)C2)nc2ccccc21`: the IC50 is more than 99.5 µM.

The compound `O=C(O)c1cc(Cl)ccc1S(=O)(=O)NC1CCC(N2CCCCC2=O)CC1` (configuration not stated) had a concentration for half-maximal inhibition (IC50) of more than 99.5 µM.

The compound `O=C(O)c1cc(Cl)ccc1S(=O)(=O)Nc1ccc(Oc2ccccn2)cc1` returned an IC50 of more than 99.5 µM.

Take `Cc1ccc(C(=O)N[C@H](C(=O)Nc2cccc(CN)c2)c2ccc(OCc3ccccc3)cc2)s1`: the half-inhibitory concentration (IC50) amounted to 97.7 µM.

Turning to `CS(=O)(=O)c1cncc(-c2cccc([C@H](NC(=O)OCc3ccccc3)C(=O)Nc3cccc(CN)c3)c2)c1`, the IC50 was determined as 71.4 µM.

As to `CCN1C[C@H]2C[C@@H]1CN2c1nc2ccccc2n(CC)c1=O`, the concentration for half-maximal inhibition (IC50) is more than 99.5 µM.

In turn, `Cc1cc(OCc2ccccc2)ccc1NS(=O)(=O)c1ccc(Cl)cc1C(=O)O` showed a half-maximal inhibitory concentration (IC50) of 27.1 µM.

For the compound `CCn1c(=O)c(N2CCC[C@@H]2c2cncn2C)nc2ccccc21`, the concentration for half-maximal inhibition (IC50) is more than 99.5 µM.

Compound `N#Cc1ccccc1-c1ccc(S(=O)(=O)Nc2ccc(Cl)cc2C(=O)O)cc1` had an IC50 of 25.1 µM.

For `CCn1c(=O)c(N2CCC[C@H]2C(=O)NC2CC2)nc2ccccc21`, the IC50 is more than 99.5 µM.

Compound `NCc1cccc(NC(=O)[C@H](NC(=O)OCc2ccccc2)c2cccc(C3=CCCOC3)c2)c1` displayed a half-inhibitory concentration (IC50) of more than 99.5 µM.

`CC(C)[C@@H]1[C@H](C(=O)Nc2cccc(CN)c2)CCN1C(=O)OCc1ccccc1` registered a half-maximal inhibitory concentration (IC50) of more than 99.5 µM.

With `NCc1cccc(NC(=O)[C@H](NC(=O)C2CCCCC2)c2ccc(OCc3ccccc3)cc2)c1`, the 50% inhibitory concentration (IC50) is 17.6 µM and 20.7 µM and 12.3 µM.

In turn, `Cn1ncc2cc(C(=O)N3CCC(NC(=O)[C@]4(C)CCC[C@H]4O)CC3)cc(O)c21` showed an IC50 of more than 99.5 µM.

With `NCc1cccc(NC(=O)[C@H](NC(=O)[C@H]2CCOC2)c2ccc(OCc3ccccc3)cc2)c1`, the concentration for half-maximal inhibition (IC50) was more than 99.5 µM.

Compound `COc1ccc(NS(=O)(=O)c2ccc(Cl)cc2C(=O)O)cc1OC1CCCC1` showed an IC50 of more than 99.5 µM.

`O=C(O)c1cc(Cl)ccc1NS(=O)(=O)c1ccc(-c2cn[nH]c2)cc1` returned a half-maximal inhibitory concentration (IC50) of more than 99.5 µM.

`C[C@]1(C(=O)N[C@H](C(=O)Nc2cccc(CN)c2)c2ccc(OCc3ccccc3)cc2)COc2ccccc2O1`: the midpoint of inhibition, the IC50, lay at 52.3 µM.

As for `CCn1c(=O)c(N2CC[C@]3(CNC(=O)O3)C2)nc2ccccc21`, the IC50 was more than 99.5 µM.

Take `CCn1c(=O)c(N2C[C@H]3CCS(=O)(=O)[C@H]3C2)nc2ccccc21`: the IC50 was more than 99.5 µM.

Consider `NCc1cccc(NC(=O)[C@H](NC(=O)c2ccncc2)c2ccc(OCc3ccccc3)cc2)c1`, for which the IC50 was more than 99.5 µM.

`O=C(O)c1cc(Cl)ccc1S(=O)(=O)NC1CCN(S(=O)(=O)c2ccc(I)cc2)CC1`: the IC50 is 81.7 µM.

As to `O=C(O)c1cc(Cl)ccc1S(=O)(=O)Nc1ccc(-c2cccc(F)c2)cc1`, it took 27 µM to reach half-maximal inhibition (IC50).

The compound `CC(=O)Nc1cccc(-c2ccc(S(=O)(=O)Nc3ccc(Cl)cc3C(=O)O)cc2)c1` registered an IC50 of 23.9 µM.

`NCc1cccc(N(C(=O)CNC(=O)OCc2ccccc2)c2ccc(OCc3ccccc3)cc2)c1` yielded a 50% inhibitory concentration (IC50) of more than 99.5 µM.

The compound `O=C(O)c1cc(Cl)ccc1S(=O)(=O)NC1CCN(Cc2ccccn2)CC1` returned a half-maximal inhibitory concentration (IC50) of more than 99.5 µM.

Regarding `CCn1c(=O)c(N2C[C@H](C)C[C@H]2c2ccccc2)nc2ccccc21`, the IC50 was more than 99.5 µM.

`CCn1c(=O)c(N2C[C@@H]3C[C@]3(CO)C2)nc2ccccc21` registered an IC50 of more than 99.5 µM.

In the case of `CCn1c(=O)c(N2C[C@H](O)C3(CC3)C2)nc2ccccc21`, the 50% inhibitory concentration (IC50) was more than 99.5 µM.

`CCn1c(=O)c(N2C[C@]3(CO)C[C@H]2CO3)nc2ccccc21` yielded an IC50 of more than 99.5 µM.

`CCn1c(=O)c(N2C[C@@H]3[C@H](C2)[C@H]2CC[C@@H]3O2)nc2ccccc21`: the IC50 was more than 99.5 µM.

`COc1ccccc1-c1ccc(S(=O)(=O)Nc2ccc(Cl)cc2C(=O)O)cc1` gave an IC50 of 12.8 µM.

For the compound `CC1(NS(=O)(=O)c2ccc(Cl)cc2C(=O)O)CCN(c2ccccc2)CC1`, the IC50 is more than 99.5 µM.

`CCOCC(=O)N[C@H](C(=O)Nc1cccc(CN)c1)c1ccc(OCc2ccccc2)cc1` gave a half-maximal inhibitory concentration (IC50) of more than 99.5 µM.

With `CCn1c(=O)c(N2CCC[C@@H]2Cn2cncn2)nc2ccccc21`, the concentration for half-maximal inhibition (IC50) is more than 99.5 µM.

As for `CCn1c(=O)c(N2CC[C@H](c3nncs3)C2)nc2ccccc21`, the half-maximal inhibitory concentration (IC50) was more than 99.5 µM.

With `NC[C@H]1C[C@@H](NC(=O)c2cc(Cl)ccc2NS(=O)(=O)c2ccc(Oc3ccccc3Cl)cc2)C1`, the half-inhibitory concentration (IC50) was more than 99.5 µM.

For `NCc1cccc(NC(=O)[C@H](NC(=O)OCc2ccccc2)C2CCC(c3ccccc3)CC2)c1` (some centres not stated), the concentration for half-maximal inhibition (IC50) is 6.26 µM and 5.78 µM.

Take `Cc1cc(C)n(-c2ccc(NS(=O)(=O)c3ccc(Cl)cc3C(=O)O)cc2)n1`: the half-inhibitory concentration (IC50) is more than 99.5 µM.

In the case of `O=C(O)c1cc(Cl)ccc1S(=O)(=O)N[C@H]1CCN(Cc2ccccc2)C(=O)C1`, the IC50 is more than 99.5 µM.

`O=C(O)c1cc(Cl)ccc1S(=O)(=O)N[C@H]1CC[C@H]2CN(Cc3ccccc3)C[C@H]2C1` gave a half-inhibitory concentration (IC50) of more than 99.5 µM.

With `Cc1ncc(COc2ccc([C@H](NC(=O)OCc3ccccc3)C(=O)Nc3cccc(CN)c3)cc2)cn1`, the 50% inhibitory concentration (IC50) was more than 99.5 µM.

The compound `CCCCN1Cc2ccc(NS(=O)(=O)c3ccc(Cl)cc3C(=O)O)cc2C1` yielded a half-inhibitory concentration (IC50) of more than 99.5 µM.

`CCn1c(=O)c(N2CC3(COC3)[C@](F)(CO)C2)nc2ccccc21` displayed an IC50 of more than 99.5 µM.

For `NCc1cccc(NC(=O)c2cc(Cl)ccc2NS(=O)(=O)c2ccc(Oc3ccccc3Cl)cc2)c1`, the IC50 is more than 99.5 µM.

`CCn1c(=O)c(N2C[C@H]3C[C@H]2C(F)(F)C3)nc2ccccc21` had an IC50 of more than 99.5 µM.

With `CCn1c(=O)c(N2CC[C@]3(CCSC3)C2)nc2ccccc21`, the IC50 is more than 99.5 µM.

For the compound `NS(=O)(=O)c1cccc(-c2ccc(S(=O)(=O)Nc3ccc(Cl)cc3C(=O)O)cc2)c1`, the 50% inhibitory concentration (IC50) was found to be 30.6 µM.

Regarding `CCn1c(=O)c(N2CCC[C@@H]2Cc2cccs2)nc2ccccc21`, the IC50 was more than 99.5 µM.

Turning to `CC(=O)N1CCN([C@H]2CC[C@H](NS(=O)(=O)c3ccc(Cl)cc3C(=O)O)CC2)CC1`, the half-maximal inhibitory concentration (IC50) was more than 99.5 µM.

Compound `CCC1CN(C(=O)c2cc(Cl)ccc2NS(=O)(=O)c2ccc(Oc3ccccc3Cl)cc2)C1` came in with an IC50 of more than 99.5 µM.
